Source: patent US10168342B2, “Lipid probes and uses thereof” (THE SCRIPPS RESEARCH INSTITUTE, priority 2015, dated 2019)
Where two headings read alike, the source gives them in different places.

Tests used:
[1] = biological target: AEA-DA lipid probe targets in Neuro2a cells (Mus musculus, UniProt P70699)
[2] = biological target: AEA-DA lipid probe targets in Neuro2a cells (Mus musculus, UniProt Q9QUJ7)
[3] = biological target: T1, AEA-DA lipid probe targets in Neuro2a cells (Mus musculus, UniProt P22315)
T1 sequence (P22315 54-422): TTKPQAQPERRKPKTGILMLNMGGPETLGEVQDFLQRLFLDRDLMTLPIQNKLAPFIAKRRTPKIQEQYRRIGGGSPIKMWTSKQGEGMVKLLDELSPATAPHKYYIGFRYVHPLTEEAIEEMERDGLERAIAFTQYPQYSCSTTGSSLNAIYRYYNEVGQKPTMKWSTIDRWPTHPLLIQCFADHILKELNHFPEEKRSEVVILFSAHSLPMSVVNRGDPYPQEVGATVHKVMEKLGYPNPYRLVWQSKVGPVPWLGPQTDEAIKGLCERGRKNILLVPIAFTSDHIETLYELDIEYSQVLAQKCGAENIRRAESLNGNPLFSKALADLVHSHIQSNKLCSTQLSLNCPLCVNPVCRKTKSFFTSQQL

[4] = biological target: T2, AEA-DA lipid probe targets in Neuro2a cells (Mus musculus, UniProt P97311)
T2 sequence (P97311 1-821): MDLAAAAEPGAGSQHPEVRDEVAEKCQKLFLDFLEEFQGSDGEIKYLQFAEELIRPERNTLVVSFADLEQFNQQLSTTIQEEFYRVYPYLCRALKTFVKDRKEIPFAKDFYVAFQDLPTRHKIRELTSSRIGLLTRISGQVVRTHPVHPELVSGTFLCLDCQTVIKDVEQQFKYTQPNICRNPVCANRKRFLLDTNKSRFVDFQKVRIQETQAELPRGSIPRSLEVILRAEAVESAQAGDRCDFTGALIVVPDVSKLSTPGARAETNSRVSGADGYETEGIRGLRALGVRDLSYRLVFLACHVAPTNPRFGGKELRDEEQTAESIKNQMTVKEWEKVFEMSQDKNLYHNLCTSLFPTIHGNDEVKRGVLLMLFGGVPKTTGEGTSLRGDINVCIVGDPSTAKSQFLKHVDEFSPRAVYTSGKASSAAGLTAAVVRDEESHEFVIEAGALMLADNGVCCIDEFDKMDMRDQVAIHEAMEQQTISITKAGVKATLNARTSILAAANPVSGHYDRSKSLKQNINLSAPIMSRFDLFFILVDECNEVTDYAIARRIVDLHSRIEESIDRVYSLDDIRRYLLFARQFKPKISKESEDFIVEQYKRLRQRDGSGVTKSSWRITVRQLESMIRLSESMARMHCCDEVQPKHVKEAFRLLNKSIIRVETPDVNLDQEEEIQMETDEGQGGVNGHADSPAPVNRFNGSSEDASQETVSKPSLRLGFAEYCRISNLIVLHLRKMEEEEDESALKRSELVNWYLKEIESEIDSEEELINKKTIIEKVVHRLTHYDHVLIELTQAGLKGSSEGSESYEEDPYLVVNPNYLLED

[5] = biological target: T3, AEA-DA lipid probe targets in Neuro2a cells (Mus musculus, UniProt Q9CQ85); conditions: for SILAC ratio, TIMM22 (Q9CQ85): Neuro2a cells, AEA-DA probe
T3 sequence (Q9CQ85 1-194): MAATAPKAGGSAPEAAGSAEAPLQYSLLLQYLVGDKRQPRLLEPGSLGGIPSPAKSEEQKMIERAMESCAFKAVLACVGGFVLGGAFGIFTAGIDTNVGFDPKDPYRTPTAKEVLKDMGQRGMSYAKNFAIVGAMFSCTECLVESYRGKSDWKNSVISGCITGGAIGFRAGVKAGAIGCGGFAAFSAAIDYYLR

[6] = biological target: T4, AEA-DA lipid probe targets in Neuro2a cells (Mus musculus, UniProt Q8K0C4)
T4 sequence (Q8K0C4 1-503): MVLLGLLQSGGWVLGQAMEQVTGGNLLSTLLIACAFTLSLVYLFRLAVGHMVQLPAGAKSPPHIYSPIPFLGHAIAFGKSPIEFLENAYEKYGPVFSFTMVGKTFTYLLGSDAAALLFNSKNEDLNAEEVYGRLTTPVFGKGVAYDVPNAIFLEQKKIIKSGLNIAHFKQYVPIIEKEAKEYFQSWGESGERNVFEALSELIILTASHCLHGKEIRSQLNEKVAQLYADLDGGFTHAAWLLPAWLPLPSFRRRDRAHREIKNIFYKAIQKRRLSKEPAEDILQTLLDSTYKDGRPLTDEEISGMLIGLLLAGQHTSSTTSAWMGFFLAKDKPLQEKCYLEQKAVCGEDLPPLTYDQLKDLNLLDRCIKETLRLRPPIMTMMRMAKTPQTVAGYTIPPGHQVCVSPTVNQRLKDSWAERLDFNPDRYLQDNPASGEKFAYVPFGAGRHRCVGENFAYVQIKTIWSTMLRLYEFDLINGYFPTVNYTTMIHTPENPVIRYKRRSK

[7] = biological target: AEA-DA lipid probe targets in Neuro2a cells (Mus musculus, UniProt Q62351)
[8] = biological target: T5, AEA-DA lipid probe targets in Neuro2a cells (Mus musculus, UniProt P01897)
T5 sequence (P01897 25-362): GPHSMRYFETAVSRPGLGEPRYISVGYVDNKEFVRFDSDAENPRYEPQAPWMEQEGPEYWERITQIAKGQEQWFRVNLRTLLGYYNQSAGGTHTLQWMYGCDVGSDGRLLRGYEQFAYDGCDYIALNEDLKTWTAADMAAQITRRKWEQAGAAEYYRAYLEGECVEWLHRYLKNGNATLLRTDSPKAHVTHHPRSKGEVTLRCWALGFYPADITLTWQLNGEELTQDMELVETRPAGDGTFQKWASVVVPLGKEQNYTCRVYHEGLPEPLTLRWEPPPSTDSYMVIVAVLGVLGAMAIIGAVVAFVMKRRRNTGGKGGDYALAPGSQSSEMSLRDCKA

AEA-DA lipid probe targets in Neuro2a cells (Mus musculus, UniProt Q62351), sequence (Q62351 whole entry): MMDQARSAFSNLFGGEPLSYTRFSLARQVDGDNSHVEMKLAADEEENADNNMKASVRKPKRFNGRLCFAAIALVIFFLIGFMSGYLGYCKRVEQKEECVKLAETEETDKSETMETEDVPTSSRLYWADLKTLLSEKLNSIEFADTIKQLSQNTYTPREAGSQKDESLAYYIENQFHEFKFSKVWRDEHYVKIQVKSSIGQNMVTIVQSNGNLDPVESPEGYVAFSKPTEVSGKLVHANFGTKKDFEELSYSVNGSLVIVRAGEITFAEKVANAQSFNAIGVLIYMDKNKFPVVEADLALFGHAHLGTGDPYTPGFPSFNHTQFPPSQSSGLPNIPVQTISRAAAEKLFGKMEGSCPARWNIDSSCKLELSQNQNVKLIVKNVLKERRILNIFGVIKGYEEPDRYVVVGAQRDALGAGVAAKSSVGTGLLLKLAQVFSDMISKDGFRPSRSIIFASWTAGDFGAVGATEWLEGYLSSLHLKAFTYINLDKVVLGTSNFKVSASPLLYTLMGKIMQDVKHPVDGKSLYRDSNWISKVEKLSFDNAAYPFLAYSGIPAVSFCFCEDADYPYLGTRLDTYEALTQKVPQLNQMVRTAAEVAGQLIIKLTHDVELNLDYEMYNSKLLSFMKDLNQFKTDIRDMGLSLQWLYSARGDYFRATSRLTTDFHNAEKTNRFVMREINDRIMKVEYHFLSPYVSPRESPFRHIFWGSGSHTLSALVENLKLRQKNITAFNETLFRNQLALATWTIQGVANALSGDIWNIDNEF
AEA-DA lipid probe targets in Neuro2a cells (Mus musculus, UniProt Q9QUJ7), sequence (Q9QUJ7 whole entry): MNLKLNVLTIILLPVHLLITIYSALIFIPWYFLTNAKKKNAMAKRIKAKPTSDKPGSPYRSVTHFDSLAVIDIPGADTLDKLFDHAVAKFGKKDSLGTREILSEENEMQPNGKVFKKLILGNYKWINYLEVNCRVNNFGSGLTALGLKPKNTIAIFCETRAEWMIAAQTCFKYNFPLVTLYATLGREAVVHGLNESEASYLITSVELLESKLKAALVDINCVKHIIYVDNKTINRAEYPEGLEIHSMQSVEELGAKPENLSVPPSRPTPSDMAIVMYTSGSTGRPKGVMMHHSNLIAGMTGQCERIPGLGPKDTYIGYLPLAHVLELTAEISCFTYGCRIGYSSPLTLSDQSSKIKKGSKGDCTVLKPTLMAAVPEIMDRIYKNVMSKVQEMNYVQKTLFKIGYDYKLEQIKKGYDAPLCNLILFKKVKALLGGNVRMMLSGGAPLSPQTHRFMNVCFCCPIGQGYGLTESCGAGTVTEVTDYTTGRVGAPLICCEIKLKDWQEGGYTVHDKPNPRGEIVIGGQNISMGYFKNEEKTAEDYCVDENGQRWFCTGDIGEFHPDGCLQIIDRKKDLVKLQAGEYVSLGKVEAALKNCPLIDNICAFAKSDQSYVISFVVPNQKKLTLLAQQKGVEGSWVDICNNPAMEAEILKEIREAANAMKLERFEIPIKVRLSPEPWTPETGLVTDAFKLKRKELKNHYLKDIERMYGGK
AEA-DA lipid probe targets in Neuro2a cells (Mus musculus, UniProt P70699), sequence (P70699 70-953): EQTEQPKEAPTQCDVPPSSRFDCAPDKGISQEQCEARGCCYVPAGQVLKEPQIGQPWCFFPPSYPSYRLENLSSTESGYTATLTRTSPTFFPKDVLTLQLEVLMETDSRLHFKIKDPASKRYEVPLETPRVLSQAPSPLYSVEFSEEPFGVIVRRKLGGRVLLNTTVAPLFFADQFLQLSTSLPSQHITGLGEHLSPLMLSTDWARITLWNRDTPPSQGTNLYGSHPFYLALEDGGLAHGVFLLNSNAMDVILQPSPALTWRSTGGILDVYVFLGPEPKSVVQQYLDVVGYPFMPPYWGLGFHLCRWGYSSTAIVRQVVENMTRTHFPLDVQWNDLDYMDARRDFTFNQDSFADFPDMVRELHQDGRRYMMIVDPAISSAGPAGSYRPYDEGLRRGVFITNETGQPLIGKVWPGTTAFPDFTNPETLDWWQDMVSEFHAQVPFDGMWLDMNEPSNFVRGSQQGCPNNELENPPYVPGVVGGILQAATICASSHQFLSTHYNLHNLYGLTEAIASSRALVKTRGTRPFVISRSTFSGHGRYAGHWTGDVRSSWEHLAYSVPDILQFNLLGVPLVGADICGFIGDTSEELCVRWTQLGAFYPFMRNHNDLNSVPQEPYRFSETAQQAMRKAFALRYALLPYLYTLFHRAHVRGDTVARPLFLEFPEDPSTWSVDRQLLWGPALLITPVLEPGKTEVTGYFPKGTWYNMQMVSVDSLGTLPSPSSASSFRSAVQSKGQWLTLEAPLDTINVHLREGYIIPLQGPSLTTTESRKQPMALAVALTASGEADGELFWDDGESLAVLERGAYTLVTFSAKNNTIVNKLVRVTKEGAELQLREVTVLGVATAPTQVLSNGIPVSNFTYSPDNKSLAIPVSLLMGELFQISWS

CCCCC/C=C\C/C=C\C/C=C\C/C=C\CCCC(=O)NCCO [AEA, anandamide, reference compound]
SILAC ratio Gaa ([1]; competitor 200 μM): 1.4
SILAC ratio Acsl4 ([2]; competitor 200 μM): 1.6
SILAC ratio, Fech ([3]; competitor 200 μM): 1.3
SILAC ratio Mcm6 ([4]; competitor 200 μM): 1.3
SILAC ratio, TIMM22 (Q9CQ85) ([5]; competitor 200 μM): 1.3
SILAC ratio, Timm22 ([5]; competitor 200 μM): 1.3
SILAC ratio Cyp51a1 ([6]; competitor 200 μM): 1.8
SILAC ratio Tfrc ([7]; competitor 200 μM): 1.0
SILAC ratio H2-L ([8]; competitor 200 μM): 1.3

C=CCN(C)CCCCCCOc1ccc(C(=O)c2ccc(Br)cc2)c(F)c1 [Ro 48-8071, reference compound]
SILAC ratio Gaa ([1]; competitor 25 μM): 0.5
SILAC ratio Acsl4 ([2]; competitor 25 μM): 1.1
SILAC ratio, Fech ([3]; competitor 25 μM): 1.4
SILAC ratio Mcm6 ([4]; competitor 25 μM): 0.8
SILAC ratio, TIMM22 (Q9CQ85) ([5]; competitor 25 μM): 1.1
SILAC ratio, Timm22 ([5]; competitor 25 μM): 1.1
SILAC ratio Cyp51a1 ([6]; competitor 25 μM): 1.3
SILAC ratio Tfrc ([7]; competitor 25 μM): 0.8
SILAC ratio H2-L ([8]; competitor 25 μM): 0.8

CN1CCN(C(=O)c2c(-c3ccccc3)c3cc([N+](=O)[O-])ccc3n2C)CC1 [KML110, (1-Methyl-5-nitro-3-phenyl-1H-indol-2-yl)(4-methylpiperazin-1-yl)methanone]
SILAC ratio Gaa ([1]; competitor 25 μM): 1.6
SILAC ratio Acsl4 ([2]; competitor 25 μM): 1.3
SILAC ratio, Fech ([3]; competitor 25 μM): 2.2
SILAC ratio Mcm6 ([4]; competitor 25 μM): 2.0
SILAC ratio, Timm22 ([5]; competitor 25 μM): 1.4
SILAC ratio Cyp51a1 ([6]; competitor 25 μM): 1.2
SILAC ratio Tfrc ([7]; competitor 25 μM): 1.1
SILAC ratio H2-L ([8]; competitor 25 μM): 1.7

O=C(/C=C/c1cccnc1)NCCCCC1CCN(C(=O)c2ccccc2)CC1 [FK-866, reference compound]
SILAC ratio Gaa ([1]; competitor 25 μM): 1.1
SILAC ratio Acsl4 ([2]; competitor 25 μM): 1.3
SILAC ratio, Fech ([3]; competitor 25 μM): 20.0
SILAC ratio Mcm6 ([4]; competitor 25 μM): 1.1
SILAC ratio, TIMM22 (Q9CQ85) ([5]; competitor 25 μM): 1.2
SILAC ratio, Timm22 ([5]; competitor 25 μM): 1.2
SILAC ratio Cyp51a1 ([6]; competitor 25 μM): 1.5
SILAC ratio Tfrc ([7]; competitor 25 μM): 1.1
SILAC ratio H2-L ([8]; competitor 25 μM): 1.0

CN1CCN(C(=O)c2[nH]c3ccc([N+](=O)[O-])cc3c2-c2ccccc2)CC1 [MJN228, (4-Methylpiperazin-1-yl)(5-nitro-3-phenyl-1H-indol-2-yl)methanone]
SILAC ratio Gaa ([1]; competitor 10 μM): 1.0
SILAC ratio Gaa ([1]; competitor 25 μM): 1.2
SILAC ratio Gaa ([1]; competitor 50 μM): 1.4
SILAC ratio Gaa ([1]; competitor 100 μM): 1.2
SILAC ratio Acsl4 ([2]; competitor 10 μM): 1.2
SILAC ratio Acsl4 ([2]; competitor 25 μM): 1.4
SILAC ratio Acsl4 ([2]; competitor 50 μM): 1.6
SILAC ratio Acsl4 ([2]; competitor 100 μM): 1.7
SILAC ratio, Fech ([3]; competitor 10 μM): 1.0
SILAC ratio, Fech ([3]; competitor 25 μM): 2.4
SILAC ratio, Fech ([3]; competitor 50 μM): 3.0
SILAC ratio, Fech ([3]; competitor 100 μM): 2.9
SILAC ratio Mcm6 ([4]; competitor 10 μM): 1.2
SILAC ratio Mcm6 ([4]; competitor 25 μM): 1.4
SILAC ratio Mcm6 ([4]; competitor 50 μM): 1.0
SILAC ratio Mcm6 ([4]; competitor 100 μM): 1.6
SILAC ratio, TIMM22 (Q9CQ85) ([5]; competitor 25 μM): 1.3
SILAC ratio, Timm22 ([5]; competitor 10 μM): 1.0
SILAC ratio, Timm22 ([5]; competitor 25 μM): 1.3
SILAC ratio, Timm22 ([5]; competitor 50 μM): 1.0
SILAC ratio, Timm22 ([5]; competitor 100 μM): 1.8
SILAC ratio Cyp51a1 ([6]; competitor 10 μM): 1.5
SILAC ratio Cyp51a1 ([6]; competitor 25 μM): 2.2
SILAC ratio Cyp51a1 ([6]; competitor 50 μM): 2.3
SILAC ratio Cyp51a1 ([6]; competitor 100 μM): 3.1
SILAC ratio Tfrc ([7]; competitor 10 μM): 1.1
SILAC ratio Tfrc ([7]; competitor 25 μM): 1.0
SILAC ratio Tfrc ([7]; competitor 50 μM): 1.0
SILAC ratio Tfrc ([7]; competitor 100 μM): 1.0
SILAC ratio H2-L ([8]; competitor 10 μM): 1.0
SILAC ratio H2-L ([8]; competitor 25 μM): 1.1
SILAC ratio H2-L ([8]; competitor 50 μM): 1.1
SILAC ratio H2-L ([8]; competitor 100 μM): 1.0
